pIC50: −log10 of the molar value.

For one assay, the target named is T1, PERK (Homo sapiens, UniProt Q9NZJ5).
T1 sequence (Q9NZJ5 30-1116): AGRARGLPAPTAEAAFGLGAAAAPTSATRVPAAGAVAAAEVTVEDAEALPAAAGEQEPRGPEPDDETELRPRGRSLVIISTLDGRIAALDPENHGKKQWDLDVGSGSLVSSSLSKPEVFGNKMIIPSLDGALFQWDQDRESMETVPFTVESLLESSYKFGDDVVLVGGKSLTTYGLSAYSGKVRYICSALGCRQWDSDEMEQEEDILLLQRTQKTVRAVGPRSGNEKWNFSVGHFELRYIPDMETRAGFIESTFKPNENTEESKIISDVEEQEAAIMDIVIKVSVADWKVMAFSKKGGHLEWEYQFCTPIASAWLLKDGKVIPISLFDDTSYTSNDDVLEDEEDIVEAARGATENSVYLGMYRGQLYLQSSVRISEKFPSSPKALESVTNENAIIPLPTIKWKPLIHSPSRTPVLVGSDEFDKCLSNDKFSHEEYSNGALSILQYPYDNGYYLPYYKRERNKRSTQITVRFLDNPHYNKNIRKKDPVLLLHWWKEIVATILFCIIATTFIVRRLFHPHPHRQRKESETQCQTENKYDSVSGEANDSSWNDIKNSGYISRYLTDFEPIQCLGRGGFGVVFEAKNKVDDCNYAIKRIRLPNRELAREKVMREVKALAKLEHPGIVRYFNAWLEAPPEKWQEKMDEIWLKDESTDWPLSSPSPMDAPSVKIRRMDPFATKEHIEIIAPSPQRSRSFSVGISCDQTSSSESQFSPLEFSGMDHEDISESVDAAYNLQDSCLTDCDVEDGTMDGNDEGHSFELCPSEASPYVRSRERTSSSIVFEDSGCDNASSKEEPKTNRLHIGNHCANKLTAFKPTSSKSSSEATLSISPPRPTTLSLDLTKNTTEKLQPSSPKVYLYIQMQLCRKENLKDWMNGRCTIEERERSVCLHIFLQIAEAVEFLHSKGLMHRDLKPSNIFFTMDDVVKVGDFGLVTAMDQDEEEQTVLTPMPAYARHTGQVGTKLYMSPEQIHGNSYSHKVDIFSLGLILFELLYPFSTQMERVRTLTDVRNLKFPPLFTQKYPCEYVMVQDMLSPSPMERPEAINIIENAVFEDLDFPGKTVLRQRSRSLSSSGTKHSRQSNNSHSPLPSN
The assay is described as follows: PERK enzyme assay (HTRF). The class given is biochemical. To be noted: 500 μM ATP; at least one experimental run; read-out: PERK Enzyme (500 μM ATP) IC50. Summed up: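 GST-PERK (0.75 nM final) pre-incubated 30–60 min with compound (≤1% DMSO) in HEPES pH 7.5/CHAPS/MgCl2/DTT, then 500 μM ATP and 40 nM biotin-eIF2α added for 60 min. EDTA quench; HTRF detection of phospho-eIF2α (Eu anti-rabbit/streptavidin-APC) read after 2 h; IC50 from concentration series.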
In general terms: In TR-FRET formats the signal depends on donor and acceptor labels being close together.
With `CN1C(=O)N(c2ccc(-c3cn(C4CC4)c4ncnc(N)c34)c(F)c2)CC1c1ccc(F)cc1F` (single isomer, unassigned) [Example 154, 1-(4-(4-amino-7-cyclopropyl-7H-pyrrolo[2,3-d]pyrimidin-5-yl)-3-fluorophenyl)-4-(2,4-difluorophenyl)-3-methylimidazolidin-2-one], the pIC50 is 6.01.
`Cc1nc(N)c2c(-c3ccc(N4CC(c5ccc(F)cc5)N(C)C4=O)cc3F)cn(C)c2n1` (single isomer, unassigned) [Example 70, 1-(4-(4-amino-2,7-dimethyl-7H-pyrrolo[2,3-d]pyrimidin-5-yl)-3-fluorophenyl)-4-(4-fluorophenyl)-3-methylimidazolidin-2-one]: the pIC50 is 7.73.
On to `Cc1nc(N)c2c(-c3ccc(N4CC(c5ccc(F)cc5F)N(C)C4=O)cc3F)cn(C)c2n1` (single isomer, unassigned) [Example 66, 1-(4-(4-amino-2,7-dimethyl-7H-pyrrolo[2,3-d]pyrimidin-5-yl)-3-fluorophenyl)-4-(2,4-difluorophenyl)-3-methylimidazolidin-2-one], for which the pIC50 is 7.06.

Staying with this assay, now noted: PERK Enzyme (500 μM ATP) IC50; at least one experimental run; read-out: PERK Activity.
Regarding `CCN1C(=O)N(c2ccc(-c3cn(C4CC4)c4ncnc(N)c34)c(F)c2)CC1c1cc(F)ccc1F` (single isomer, unassigned) [Example 123, 1-(4-(4-amino-7-cyclopropyl-7H-pyrrolo[2,3-d]pyrimidin-5-yl)-3-fluorophenyl)-4-(2,5-difluorophenyl)-3-ethylimidazolidin-2-one], the pIC50 was 6.00 to 7.00.
Regarding `CN1C(=O)N(c2ccc(-c3cn(C4CC4)c4ncnc(N)c34)c(F)c2)CC1c1ccc(F)cc1F` (single isomer, unassigned) [Example 154, 1-(4-(4-amino-7-cyclopropyl-7H-pyrrolo[2,3-d]pyrimidin-5-yl)-3-fluorophenyl)-4-(2,4-difluorophenyl)-3-methylimidazolidin-2-one], the pIC50 was 6.00 to 7.00.
As for `CN1C(=O)N(c2ccc(-c3cn(C)c4ncnc(N)c34)c(F)c2)CC1c1cc(F)cc(Cl)c1` (single isomer, unassigned) [Example 52, 1-(4-(4-amino-7-methyl-7H-pyrrolo[2,3-d]pyrimidin-5-yl)-3-fluorophenyl)-4-(3-chloro-5-fluorophenyl)-3-methylimidazolidin-2-one], the pIC50 was 6.00 to 7.00.
In the case of `CN1C(=O)N(c2ccc(-c3cn(C)c4ncnc(N)c34)c(F)c2)CC1c1cc(F)ccc1F` (single isomer, unassigned) [Example 150, 1-(4-(4-amino-7-methyl-7H-pyrrolo[2,3-d]pyrimidin-5-yl)-3-fluorophenyl)-4-(2,5-difluorophenyl)-3-methylimidazolidin-2-one], the pIC50 is more than 7.00.
Regarding `CCN1C(=O)N(c2ccc(-c3cn(C4CC4)c4ncnc(N)c34)c(F)c2)CC1c1ccc(F)cc1F` (stereo not shown) [Example 107, 1-(4-(4-amino-7-cyclopropyl-7H-pyrrolo[2,3-d]pyrimidin-5-yl)-3-fluorophenyl)-4-(2,4-difluorophenyl)-3-ethylimidazolidin-2-one], the pIC50 is more than 7.00.
As to `Cc1cccc(C2CN(c3ccc(-c4cn(C)c5ncnc(N)c45)c(F)c3)C(=O)N2C)c1` (stereo not shown) [Example 39, 1-(4-(4-amino-7-methyl-7H-pyrrolo[2,3-d]pyrimidin-5-yl)-3-fluorophenyl)-3-methyl-4-(m-tolyl)imidazolidin-2-one], the pIC50 was 6.00 to 7.00.
As for `Cc1nc(N)c2c(-c3ccc(N4CC(c5ccc(F)cc5)N(C)C4=O)cc3F)cn(C)c2n1` (single isomer, unassigned) [Example 70, 1-(4-(4-amino-2,7-dimethyl-7H-pyrrolo[2,3-d]pyrimidin-5-yl)-3-fluorophenyl)-4-(4-fluorophenyl)-3-methylimidazolidin-2-one], the pIC50 was more than 7.00.
Turning to `CN1C(=O)N(c2ccc(-c3cn(C4CC4)c4ncnc(N)c34)c(F)c2)CC1c1cccc(F)c1` (single isomer, unassigned) [Example 125, 1-(4-(4-amino-7-cyclopropyl-7H-pyrrolo[2,3-d]pyrimidin-5-yl)-3-fluorophenyl)-4-(3-fluorophenyl)-3-methylimidazolidin-2-one], the pIC50 was more than 7.00.
`CN1C(=O)N(c2ccc(-c3cn(C4CC4)c4ncnc(N)c34)c(F)c2)CC1c1ccccc1` (stereo not shown) [Example 149, 1-(4-(4-amino-7-cyclopropyl-7H-pyrrolo[2,3-d]pyrimidin-5-yl)-3-fluorophenyl)-3-methyl-4-phenylimidazolidin-2-one]: the pIC50 was more than 7.00.
The same measure, in the same setting: to `CN1C(=O)N(c2ccc(-c3cn(C)c4ncnc(N)c34)c(F)c2)CC1c1cc(F)cc(Cl)c1` (stereo not shown) [Example 16, 1-(4-(4-amino-7-methyl-7H-pyrrolo[2,3-d]pyrimidin-5-yl)-3-fluorophenyl)-4-(3-chloro-5-fluorophenyl)-3-methylimidazolidin-2-one] belongs 6.00 to 7.00.
As to `CN1C(=O)N(c2ccc(-c3cn(C4CC4)c4ncnc(N)c34)c(F)c2)CC1c1ccc(F)cc1F` (single isomer, unassigned) [Example 155, 1-(4-(4-amino-7-cyclopropyl-7H-pyrrolo[2,3-d]pyrimidin-5-yl)-3-fluorophenyl)-4-(2,4-difluorophenyl)-3-methylimidazolidin-2-one], the pIC50 was more than 7.00.
Regarding `CN1C(=O)N(c2ccc(-c3cn(C4CC4)c4ncnc(N)c34)c(F)c2)CC1c1ccc(F)cc1` (stereo not shown) [Example 162, 1-(4-(4-amino-7-cyclopropyl-7H-pyrrolo[2,3-d]pyrimidin-5-yl)-3-fluorophenyl)-4-(4-fluorophenyl)-3-methylimidazolidin-2-one], the pIC50 was more than 7.00.
`CN1C(=O)N(c2ccc(-c3cn(C)c4ncnc(N)c34)c(F)c2)CC1c1cccc(F)c1F` (stereo not shown) [Example 74, 1-(4-(4-amino-7-methyl-7H-pyrrolo[2,3-d]pyrimidin-5-yl)-3-fluorophenyl)-4-(2,3-difluorophenyl)-3-methylimidazolidin-2-one]: the pIC50 was 6.00 to 7.00.
Still for that read-out and setting: with `CN1C(=O)N(c2ccc(-c3cn(C4CC4)c4ncnc(N)c34)c(F)c2)CC1c1cccc(Cl)c1` (single isomer, unassigned) [Example 152, 1-(4-(4-amino-7-cyclopropyl-7H-pyrrolo[2,3-d]pyrimidin-5-yl)-3-fluorophenyl)-4-(3-chlorophenyl)-3-methylimidazolidin-2-one] the figure was more than 7.00.
`CCN1C(=O)N(c2ccc(-c3csc4ncnc(N)c34)c(F)c2)CC1c1cc(F)ccc1F` (stereo not shown) [Example 42, 1-(4-(4-aminothieno[2,3-d]pyrimidin-5-yl)-3-fluorophenyl)-4-(2,5-difluorophenyl)-3-ethylimidazolidin-2-one]: the pIC50 is 6.00 to 7.00.
The same measure, in the same setting: to `Cc1nc(N)c2c(-c3ccc(N4CC(c5ccc(F)cc5F)N(C)C4=O)cc3F)cn(C)c2n1` (single isomer, unassigned) [Example 66, 1-(4-(4-amino-2,7-dimethyl-7H-pyrrolo[2,3-d]pyrimidin-5-yl)-3-fluorophenyl)-4-(2,4-difluorophenyl)-3-methylimidazolidin-2-one] belongs more than 7.00.
Same read-out and setting: to `Cn1cc(-c2ccc(N3CC(C4CCCCC4)CC3=O)cc2F)c2c(N)ncnc21` (stereo not shown) [Example 6, 1-(4-(4-Amino-7-methyl-7H-pyrrolo[2,3-d]pyrimidin-5-yl)-3-fluorophenyl)-4-cyclohexyl pyrrolidin-2-one] belongs less than 6.00; to `Cc1nc(N)c2c(-c3c(F)cc(N4CC(c5ccc(F)cc5F)N(C)C4=O)cc3F)cn(C)c2n1` (stereo not shown) [Example 105, 1-(4-(4-amino-2,7-dimethyl-7H-pyrrolo[2,3-d]pyrimidin-5-yl)-3,5-difluorophenyl)-4-(2,4-difluorophenyl)-3-methylimidazolidin-2-one], 6.00 to 7.00.
Take `CN1C(=O)N(c2ccc(-c3cn(C4CC4)c4ncnc(N)c34)c(F)c2)CC1c1ccc(Cl)cc1` (single isomer, unassigned) [Example 168, 1-(4-(4-amino-7-cyclopropyl-7H-pyrrolo[2,3-d]pyrimidin-5-yl)-3-fluorophenyl)-4-(4-chlorophenyl)-3-methylimidazolidin-2-one]: the pIC50 is more than 7.00.
On the same count and under the same terms, with `Cc1cc(N2CC(c3cc(F)cc(F)c3)CC2=O)ccc1-c1cn(C)c2ncnc(N)c12` (stereo not shown) [Example 5, 1-(4-(4-Amino-7-methyl-7H-pyrrolo[2,3-d]pyrimidin-5-yl)-3-methylphenyl)-4-(3,5-difluorophenyl)pyrrolidin-2-one] the figure was 6.00 to 7.00; with `CN1C(=O)N(c2ccc(-c3cn(C4CC4)c4ncnc(N)c34)c(F)c2)CC1c1cc(F)c(F)cc1F` (stereo not shown) [Example 157, 1-(4-(4-amino-7-cyclopropyl-7H-pyrrolo[2,3-d]pyrimidin-5-yl)-3-fluorophenyl)-3-methyl-4-(2,4,5-trifluorophenyl)imidazolidin-2-one], more than 7.00.
On the same count and under the same terms, with `Cc1nc(C2CN(c3ccc(-c4cn(C)c5ncnc(N)c45)c(F)c3)C(=O)N2C)ccc1F` (stereo not shown) [Example 112, 1-(4-(4-amino-7-methyl-7H-pyrrolo[2,3-d]pyrimidin-5-yl)-3-fluorophenyl)-4-(5-fluoro-6-methylpyridin-2-yl)-3-methylimidazolidin-2-one] the figure was 6.00 to 7.00.

The values are drawn from patent publication US20180237441A1, “Chemical Compounds” (GlaxoSmithKline Intellectual Property (No.2) Limited, priority 2015, published 2018).
